In publication PMC6225228, “Design, Synthesis and Evaluation of N-pyrazinylbenzamides as Potential Antimycobacterial Agents” (Molecules : A Journal of Synthetic Chemistry and Natural …, 2018):
pIC50: −log10 of the molar value. Converted amounts (≈) assume the structure as drawn. Where two headings read alike, the source gives them in different places.

Tests used:
[1] = test system: Mycobacterium tuberculosis H37Rv (Mtb); settings: Šula's semisynthetic medium, pH = 5.6, turbidity, cited from earlier work; for Amides MIC: first value; for Amides MIC (value in parentheses): second value in parentheses
HepG2 cells = settings: read-out: Amide -CONH- IC50; cited from earlier work
[2] = test system: Mycobacterium tuberculosis H37Rv CNCTC My 331/88 (ATCC 27294); experiment: Antimycobacterial microdilution MABA, M. tuberculosis; type: cell-based; settings: Mycobacterium tuberculosis
[3] = test system: M. kansasii CNCTC My 235/80 (ATCC 12478); experiment: Antimycobacterial microdilution MABA, M. kansasii; type: cell-based, Mycobacterium kansasii; settings: Mycobacterium kansasii, ATCC12478, pH 6.6, read-out: M. kans. ATCC 12478 MIC, Middlebrook 7H9 with OADC, pH 6.6, MABA
[4] = test system: M. avium ssp. avium CNCTC My 80/72 (ATCC 15769); experiment: Antimycobacterial microdilution MABA, M. avium; type: cell-based, Mycobacterium avium; settings: Mycobacterium avium, ATCC15769, pH 6.6, read-out: M. avium ATCC 15769 MIC
[5] = test system: Mycobacterium smegmatis CCM 4622 (ATCC 607); experiment: Antimycobacterial microdilution, M. smegmatis; type: cell-based; settings: Mycolicibacterium smegmatis, read-out: M. smeg. ATCC 607 MIC
[6] = test system: Staphylococcus aureus CCM 4516/08; experiment: Antibacterial microdilution broth, SA; type: cell-based; settings: Staphylococcus aureus
[7] = test system: Staphylococcus aureus H 5996/08 methicillin resistant; experiment: microbe, parasite or virus in culture; type: cell-based; settings: for MIC: Staphylococcus aureus, MRSA, read-out: MIC MRSA
[8] = test system: Staphylococcus epidermidis H 6966/08; experiment: Antibacterial microdilution broth, SE; type: cell-based; settings: read-out: MIC SE
[9] = test system: Enterococcus sp. J 14365/08; experiment: Antibacterial microdilution broth, EF; type: cell-based; settings: Enterococcus, read-out: MIC EF
[10] = test system: Escherichia coli CCM 4517; experiment: Antibacterial microdilution broth, EC; type: cell-based; settings: Escherichia coli, read-out: MIC EC
[11] = test system: Pseudomonas aeruginosa CCM 1961; experiment: Antibacterial microdilution broth, PA; type: cell-based; settings: Pseudomonas aeruginosa, read-out: MIC PA
[12] = test system: Candida albicans ATCC 44859; experiment: Antifungal microdilution broth, CA; type: cell-based; settings: Candida albicans, read-out: MIC CA
Candida tropicalis 156 = experiment: Antifungal microdilution broth, CT; type: cell-based; settings: read-out: MIC CT
Candida krusei E28 = experiment: Antifungal microdilution broth, CK; type: cell-based; settings: Pichia kudriavzevii, read-out: MIC CK
Candida glabrata 20/I = experiment: Antifungal microdilution broth, CG; type: cell-based; settings: Nakaseomyces glabratus, 20/I, read-out: MIC CG
Trichosporon asahii 1188 = experiment: Antifungal microdilution broth, TA; type: cell-based; settings: read-out: MIC TA
[13] = test system: Aspergillus fumigatus 231; experiment: Antifungal microdilution broth, AF; type: cell-based; settings: read-out: MIC AF
[14] = test system: Lichtheimia corymbifera 272; experiment: Antifungal microdilution broth, LC; type: cell-based; settings: read-out: MIC LC
[15] = test system: Trichophyton interdigitale 445; experiment: Antifungal microdilution broth, TI; type: cell-based; settings: read-out: MIC TI
[16] = Confirmatory prolonged HepG2 cytotoxicity, CellTox Green Cytotoxicity Assay; settings: human, HepG2 cells
[17] = human, HepG2 cells

## CCc1ccc(NC(=O)c2cnc(Cl)cn2)cc1 [Amide R1=5-Cl R2=4-Et]
[1]
  Amides MIC: 1.56 µg/mL
  Amides MIC (value in parentheses): 0.78 µg/mL
HepG2 cells
  pIC50: 5.14

## O=C(Nc1ccccc1O)c1cnc(Cl)cn1 [Amide R1=5-Cl R2=2-OH]
[1]
  Amides MIC: 3.13 µg/mL
  Amides MIC (value in parentheses): 0.78 µg/mL
HepG2 cells
  pIC50: 4.52

## O=C(Nc1cnc(Cl)cn1)c1ccccc1O [Compound 2b]
[2]; read-out: Mtb H37Rv ATCC 27294 MIC, Middlebrook 7H9 with OADC growth supplement, pH = 6.6, MABA
  MIC: 12.5 µg/mL
[2]; read-out: Mtb MIC, molar concentration
  MIC: 50.1 µM
[3]
  MIC: 50 µg/mL (≈ 200 µM)
[4]
  MIC: 50 µg/mL (≈ 200 µM)
[5]
  MIC: 15.6 µg/mL (≈ 62.6 µM)
[6]; CCM4516, 24 h, read-out: MIC SA, 24 h
  MIC: 15.6 µM (≈ 3.9 µg/mL)
[6]; CCM4516, 48 h, read-out: MIC SA, 48 h
  MIC: 15.6 µM (≈ 3.9 µg/mL)
[7]; 24 h
  MIC MRSA: 62.50 µM (≈ 15.6 µg/mL)
  MIC: 62.5 µM (≈ 15.6 µg/mL)
[7]; 48 h
  MIC MRSA: 62.50 µM (≈ 15.6 µg/mL)
  MIC: 62.5 µM (≈ 15.6 µg/mL)
[8]; 24 h
  MIC: 62.50 µM (≈ 15.6 µg/mL)
[8]; 48 h
  MIC: 62.50 µM (≈ 15.6 µg/mL)
[8]; Staphylococcus epidermidis, H6966/08, 24 h
  MIC: 62.5 µM (≈ 15.6 µg/mL)
[8]; Staphylococcus epidermidis, H6966/08, 48 h
  MIC: 62.5 µM (≈ 15.6 µg/mL)
[9]; SP.J14365/08, 24 h
  MIC: > 500 µM
[9]; SP.J14365/08, 48 h
  MIC: > 500 µM
[10]; CCM4517, 24 h
  MIC: > 500 µM
[10]; CCM4517, 48 h
  MIC: > 500 µM
[11]; CCM1961, 72 h
  MIC: > 500 µM
[11]; CCM1961, 120 h
  MIC: > 500 µM
[12]; ATCC44859, 24 h
  MIC: 62.5 µM (≈ 15.6 µg/mL)
[12]; ATCC44859, 48 h
  MIC: 62.5 µM (≈ 15.6 µg/mL)
Candida tropicalis 156; Candida tropicalis, 156, 24 h
  MIC: 125 µM (≈ 31.2 µg/mL)
Candida tropicalis 156; Candida tropicalis, 156, 48 h
  MIC: 125 µM (≈ 31.2 µg/mL)
Candida krusei E28; E28, 24 h
  MIC: 125 µM (≈ 31.2 µg/mL)
Candida krusei E28; E28, 48 h
  MIC: 125 µM (≈ 31.2 µg/mL)
Candida glabrata 20/I; 24 h
  MIC: 125 µM (≈ 31.2 µg/mL)
Candida glabrata 20/I; 48 h
  MIC: 125 µM (≈ 31.2 µg/mL)
Trichosporon asahii 1188; Trichosporon asahii, 1188, 24 h
  MIC: 62.5 µM (≈ 15.6 µg/mL)
Trichosporon asahii 1188; Trichosporon asahii, 1188, 48 h
  MIC: 125 µM (≈ 31.2 µg/mL)
[13]; Aspergillus fumigatus, 231, 24 h
  MIC: 125 µM (≈ 31.2 µg/mL)
[13]; Aspergillus fumigatus, 231, 48 h
  MIC: 125 µM (≈ 31.2 µg/mL)
[14]; Lichtheimia corymbifera, 272, 24 h
  MIC: 62.5 µM (≈ 15.6 µg/mL)
[14]; Lichtheimia corymbifera, 272, 48 h
  MIC: 125 µM (≈ 31.2 µg/mL)
[15]; Trichophyton interdigitale, 445, 72 h
  MIC: 125 µM (≈ 31.2 µg/mL)
[15]; Trichophyton interdigitale, 445, 120 h
  MIC: 125 µM (≈ 31.2 µg/mL)
other
  melting point: 197.7 to 198.2 °C
[16]
  IC50 at 24 h: 545 µM
  IC50 at 48 h: 188 µM
[17]
  IC50 at 24 h: 155 µM
